Assay results from patent US20110184068A1, “USE OF (HALOBENZYLOXY) BENZYLAMINO-PROPANAMIDES FOR THE MANUFACTURE OF MEDICAMENTS ACTIVE AS SODIUM AND/OR CALCIUM CHANNEL SELECTIVE MODULATORS” (Newron Pharmaceuticals S.p.A., priority 2004, published 2011).
pIC50: −log10 of the molar value.

Columns and labels:
Na channel Nav 1.3 = target: T1, Na channel Nav 1.3 (Homo sapiens, UniProt Q9NY46); experiment: Electrophysiological assay, tonic block, two electrodes voltage clamp in Xenopus oocytes; assay type: cell-based; details: depolarized (-40 mV, half max current availability) condition, read-out: Nav 1.3 Dep. Curr IC50
T1 construct: expressed in transfected cells; host or cells: Xenopus laevis oocytes injected with Nav1.3 cRNA
Experimental: Electrophysiological Assay
Experiments for the determination of the tonic block are carried out on isolated Xenopus oocytes expressing the Na channel Nav 1.3. Currents are recorded using the two electrodes voltage clamp (TEVC) technique
The day after the preparation, the oocytes are injected (Drummond Nanoject) with 20 ng Nav1.3 cRNA and maintained in NDE.
Starting from 48 h after the mRNA injection whole cell currents are recorded using a two-microelectrode voltage clamp automated workstation.
Compounds are prepared in stock solutions (20 mM) and dissolved to the final concentrations in the external bath solution.
The current/voltage (I/V) relationship for the Nav1.3 currents expressed in oocytes was first studied in order to determine the membrane potential evoking the maximal activation.
The steady-state inactivation properties of the Nav1.3 currents were then studied in order to determine the membrane potentials for the resting state (Vrest) at which channel availability is maximal (Imax), and the membrane potential for the half maximal inactivation (V ½) producing half of the max current availability (I ½) respectively. This two voltage conditions were then used for the evaluation of the voltage dependence of the tonic block.
Finally a two-step protocol was used to determine the voltage dependence of the block of Nav1.3: the oocytes were clamped at −80 mV, the currents were activated by a 100 ms step pulse to 0 mV (Vtest) from a 3000 ms preconditioning potential at −80 mV (resting, Imax condition) and −40 mV (depolarized, I ½ condition), respectively.
Current amplitudes in the two conditions were recorded in the absence and in the presence of different concentrations of compound (washout was made in between) in order to determine the concentration-inhibition curves and IC50 values for the tonic block in the depolarized (half max current availability) conditions.
The activity on Nav 1.3 sodium channel, expressed as IC50 of the (R)-isomers of this invention and of the comparison compounds is reported in Table I.

mice = experiment: Mice formalin test; assay type: in vivo; details: 20 mg/kg p.o. 15 min before formalin; cumulative licking time, late phase 30-40 min, vs control group
Experimental: According to a modified protocol from Rosland et al., (1990) mice were injected subcutaneously (s.c.) with 20 μL of 2.7% solution of formalin into the plantar surface of left hindpaw and placed immediately into clear PVC observation chambers (23×12×13 cm).
The test compound (20 mg/kg) was administered p.o. 15 min before formalin injection in a volume of 10 ml/kg body weight to groups of 10 mice per dose. Control group was treated with vehicle.
Pain behavior was quantified by counting the cumulative licking time (seconds) of the injected paw with formalin. Measurements were taken during the late phase 30-40 min after formalin injection (Tjolsen et al 1992).
The analgesic effect of the compounds was calculated as the % of inhibition of the cumulative licking time respect the control group.

MAO-B = target: T2, MAO-B (Rattus norvegicus, UniProt P19643); experiment: In vitro MAO-B enzyme activity assay (radioenzymatic, 14C-phenylethylamine); assay type: biochemical; details: rat brain crude mitochondrial fraction; 30 min preincubation; concentration inhibiting 90% enzyme activity
T2 construct: Membrane preparations (crude mitochondrial fraction); from tissue; host or cells: rat brain, crude mitochondrial fraction
T2 sequence (P19643 1-520): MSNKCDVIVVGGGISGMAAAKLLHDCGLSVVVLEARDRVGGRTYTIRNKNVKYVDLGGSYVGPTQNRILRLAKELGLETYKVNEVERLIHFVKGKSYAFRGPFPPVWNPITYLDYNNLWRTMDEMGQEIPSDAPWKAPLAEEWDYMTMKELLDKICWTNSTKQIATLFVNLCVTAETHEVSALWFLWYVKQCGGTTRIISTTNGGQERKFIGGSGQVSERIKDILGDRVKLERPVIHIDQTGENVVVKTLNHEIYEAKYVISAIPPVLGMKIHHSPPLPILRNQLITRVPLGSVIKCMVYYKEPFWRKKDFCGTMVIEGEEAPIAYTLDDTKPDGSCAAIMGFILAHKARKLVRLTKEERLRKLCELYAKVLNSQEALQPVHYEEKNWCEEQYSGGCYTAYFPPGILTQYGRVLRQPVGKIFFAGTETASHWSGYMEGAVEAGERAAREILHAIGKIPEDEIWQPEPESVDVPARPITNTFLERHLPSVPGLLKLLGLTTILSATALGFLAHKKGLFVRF
Experimental: In Vitro MAO-B Enzyme Activity Assay
Membrane preparations (crude mitochondrial fraction): male Wistar rats (Harlan, Italy-175-200 g) were sacrificed under light anaesthesia and brains were rapidly removed and homogenized in 8 vol. of ice-cold 0.32 M sucrose buffer containing 0.1 M EDTA, pH 7.4. The crude homogenate was centrifuged at 2220 rpm for 10 min and the supernatant recovered. The pellet was homogenized and centrifuged again and the two supernatants were pooled and centrifuged at 9250 rpm for 10 min, +4° C. The pellet was resuspended in fresh buffer and centrifuged at 11250 rpm for 10 min, +4° C. The resulting pellet was stored at −80° C. until use.
In vitro enzyme activity assay: the enzyme activities were assessed with a radioenzymatic assay using the selective substrate ^14C-phenylethylamine (PEA) for MAO-B.
The mitochondrial pellet (500 μg protein) was resuspended in 0.1M phosphate buffer pH 7.4 and 500 μl was added to 50 μl of the test compound or buffer for 30 min at 37° C. (preincubation) then the substrate (50 μl) was added. The incubation was carried out for 10 min at 37° C. (^14C-PEA, 0.5 μM).
The reaction was stopped by adding 0.2 ml HCl or perchloric acid. After centrifugation, the deaminated metabolites were extracted with 3 ml of toluene and the radioactive organic phase measured by liquid scintillation spectrometry at 90% efficiency. Radioactivity in the eluate indicates the production of neutral and acidic metabolites formed as a result of MAO-B activity.
The enzymatic activity was expressed as nmoles of substrate transformed/mg protein/min. The activity of MAO-B in the sample was expressed as a percentage of control activity in the absence of inhibitors after subtraction of appropriate blank values.
The drug inhibition curves were obtained from at least eight different concentrations, each in duplicate (10^−10 to 10^−5 M) and the IC90 values (the drug concentration inhibiting 90% enzyme activity) with confidence intervals determined using linear regression analysis. (aided-computer program).
To reach a significant increase in neurotransmitter levels, MAO-B enzyme activity has to be blocked at least by 90%.

N-type calcium channels = target: T3, N-type calcium channels (Homo sapiens, UniProt Q00975); experiment: Calcium influx assay (fluorescence, differentiated IMR32 cells with nifedipine); assay type: cell-based; details: 1 μM nifedipine, 100 mM KCl depolarization, read-out: Ca 2+ N-Type IC50
T3 construct: IMR32 preferentially express on the membrane surface N-type calcium channels; endogenous in cells; host or cells: IMR32 human neuroblastoma cells, differentiated with dibutyryl-cAMP and bromodeoxyuridine
Experimental: Under differentiating conditions, IMR32 preferentially express on the membrane surface N-type calcium channels. The remaining L-type calcium channels were blocked using the selective L type blocker, nifedipine. In these experimental conditions, only N type channels can be detected.
IMR32 cells were differentiated using 1 mM dibutyryl-cAMP and 2.5 μM bromodeoxyuridine for 8 days (4 times) in 225 cm^2 flask, then detached, seeded at 200,000 cells/well on 96 polylysine-coated plates and further incubated for 18-24 h in the presence of differentiating buffer before use.
The Ca^2+ Kit Assay (Molecular Devices), based on a fluorescent calcium indicator 485-535 nm wavelength, was used.
Differentiated cells were incubated with dye loading for 30 min at 37° C. then, nifedipine alone (1 μM) or in the presence of w-conotoxin or test compounds were added for further 15 min.
The fluorescence (485-535 nm) was measured before and after (30-40 sec) the automated injection of 100 mM KCl depolarizing solution using a Victor plate reader (Perkin Elmer).
The inhibition curves were calculated from 5 concentrations, each in triplicate, and the IC50 determined using a linear regression analysis.
The activity on N-type Calcium channel, expressed as IC50 of the (R)-isomer of this invention and the comparison compounds is reported in Table I.

T1 sequence (Q9NY46 whole entry): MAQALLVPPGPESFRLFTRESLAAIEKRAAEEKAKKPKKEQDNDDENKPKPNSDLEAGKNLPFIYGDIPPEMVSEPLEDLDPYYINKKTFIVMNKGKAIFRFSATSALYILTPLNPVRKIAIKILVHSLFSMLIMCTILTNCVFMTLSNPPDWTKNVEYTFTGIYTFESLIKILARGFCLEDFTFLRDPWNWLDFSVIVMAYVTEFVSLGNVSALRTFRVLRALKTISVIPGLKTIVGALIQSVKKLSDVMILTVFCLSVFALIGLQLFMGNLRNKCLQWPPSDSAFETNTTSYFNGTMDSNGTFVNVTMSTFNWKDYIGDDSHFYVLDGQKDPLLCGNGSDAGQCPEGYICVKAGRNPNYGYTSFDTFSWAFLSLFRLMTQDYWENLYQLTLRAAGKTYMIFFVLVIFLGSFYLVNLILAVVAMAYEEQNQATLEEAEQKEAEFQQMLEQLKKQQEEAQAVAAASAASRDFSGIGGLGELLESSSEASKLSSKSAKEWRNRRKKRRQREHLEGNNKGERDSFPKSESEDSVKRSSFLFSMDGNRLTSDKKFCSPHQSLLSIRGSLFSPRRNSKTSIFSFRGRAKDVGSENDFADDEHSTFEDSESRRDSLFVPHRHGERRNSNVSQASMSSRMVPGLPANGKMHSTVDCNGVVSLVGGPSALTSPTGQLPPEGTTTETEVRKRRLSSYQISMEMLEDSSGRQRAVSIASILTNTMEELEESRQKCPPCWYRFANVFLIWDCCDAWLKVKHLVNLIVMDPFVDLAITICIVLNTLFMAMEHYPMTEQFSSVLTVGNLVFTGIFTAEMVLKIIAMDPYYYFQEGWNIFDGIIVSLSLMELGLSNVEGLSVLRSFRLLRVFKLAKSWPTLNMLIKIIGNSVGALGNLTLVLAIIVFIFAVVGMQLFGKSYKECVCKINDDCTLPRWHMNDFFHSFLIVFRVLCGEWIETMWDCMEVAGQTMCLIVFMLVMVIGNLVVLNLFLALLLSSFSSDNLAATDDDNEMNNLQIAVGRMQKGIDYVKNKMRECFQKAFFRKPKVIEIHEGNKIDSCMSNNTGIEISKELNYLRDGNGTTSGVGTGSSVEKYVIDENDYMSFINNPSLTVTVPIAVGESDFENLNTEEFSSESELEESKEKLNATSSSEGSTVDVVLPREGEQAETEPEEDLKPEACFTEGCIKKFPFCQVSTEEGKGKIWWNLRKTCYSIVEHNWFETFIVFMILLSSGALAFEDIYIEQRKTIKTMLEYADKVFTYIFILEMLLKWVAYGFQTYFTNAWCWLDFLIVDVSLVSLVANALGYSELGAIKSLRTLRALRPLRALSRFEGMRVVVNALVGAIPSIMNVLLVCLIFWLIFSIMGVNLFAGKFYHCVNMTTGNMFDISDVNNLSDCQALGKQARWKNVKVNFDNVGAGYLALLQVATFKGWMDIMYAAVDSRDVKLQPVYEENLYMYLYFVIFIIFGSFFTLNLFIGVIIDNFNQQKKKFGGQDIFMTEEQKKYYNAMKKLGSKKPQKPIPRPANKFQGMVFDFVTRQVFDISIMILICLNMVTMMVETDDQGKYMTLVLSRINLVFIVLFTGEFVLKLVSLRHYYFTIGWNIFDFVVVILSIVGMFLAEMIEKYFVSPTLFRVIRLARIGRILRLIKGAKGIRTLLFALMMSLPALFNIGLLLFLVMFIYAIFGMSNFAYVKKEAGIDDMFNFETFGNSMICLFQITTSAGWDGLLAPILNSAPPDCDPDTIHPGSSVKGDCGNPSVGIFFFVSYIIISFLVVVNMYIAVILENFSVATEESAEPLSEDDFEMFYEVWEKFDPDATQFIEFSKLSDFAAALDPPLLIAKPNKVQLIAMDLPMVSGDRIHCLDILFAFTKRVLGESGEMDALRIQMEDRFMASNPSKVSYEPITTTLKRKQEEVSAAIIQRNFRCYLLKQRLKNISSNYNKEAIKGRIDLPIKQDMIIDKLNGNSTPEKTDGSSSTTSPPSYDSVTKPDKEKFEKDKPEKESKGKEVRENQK

| SMILES | pIC50 (Na channel Nav 1.3) | IC90 (MAO-B) [µM] | pIC50 (N-type calcium channels) | FORMALIN TEST % inibition (mice) [%] |
| --- | --- | --- | --- | --- |
| CC(NCc1ccc(OCc2ccccc2F)cc1)C(N)=O (single isomer, unassigned; isomer 2) [2-[4-(2-fluorobenzyloxy)benzylamino]-propanamide S isomer, 2-[4-(2-fluorobenzyloxy)benzylamino]-propanamide] | 3.69 | 28.4 | 4.64 | 79 |
| CNC(=O)C(C)NCc1ccc(OCc2ccccc2Cl)cc1 (single isomer, unassigned; isomer 2) [2-[4-(2-chlorobenzyloxy)benzylamino]-N-methyl-propanamide S isomer, 2-[4-(2-chlorobenzyloxy)benzylamino]-N-methyl-propanamide] | 3.68 | 2.8 | 4.52 | 32 |

Molecules with a higher pIC50 (Na channel Nav 1.3), results first:

| pIC50 (Na channel Nav 1.3) | IC90 (MAO-B) [µM] | pIC50 (N-type calcium channels) | SMILES | FORMALIN TEST % inibition (mice) [%] |
| --- | --- | --- | --- | --- |
| 4.41 | 32.3 | 4.70 | CS(=O)(=O)O.C[C@@H](NCc1ccc(OCc2cccc(Cl)c2)cc1)C(N)=O [2-[4-(3-chlorobenzyloxy)benzylamino]-propanamide R isomer, (R)-2-[4-(3-chlorobenzyloxy)benzylamino]propanamide methanesulfonate] | 39 |
| 4.10 | 1.64 | 4.03 | CC(NCc1ccc(OCc2cccc(Cl)c2)cc1)C(N)=O (single isomer, unassigned; isomer 2) [2-[4-(3-chlorobenzyloxy)benzylamino]-propanamide S isomer, 2-[4-(3-chlorobenzyloxy)benzylamino]-propanamide] | 45 |
| 3.83 | 2500 | 4.53 | CS(=O)(=O)O.C[C@@H](NCc1ccc(OCc2ccccc2F)cc1)C(N)=O [2-[4-(2-fluorobenzyloxy)benzylamino]-propanamide R isomer, (R)-2-[4-(2-fluorobenzyloxy)benzylamino]propanamide methanesulfonate] | 80 |
| 4.42 | 122 | 5.08 | CNC(=O)[C@@H](C)NCc1ccc(OCc2ccccc2Cl)cc1.CS(=O)(=O)O [2-[4-(2-chlorobenzyloxy)benzylamino]-N-methyl-propanamide R isomer, (R)-2-[4-(2-chlorobenzyloxy)benzylamino]-N-methylpropanamide methanesulfonate] | 49 |
